The results in this text go back to ChEMBL document CHEMBL5260845, “Flavone-based arylamides as potential anticancers: Design, synthesis and in vitro cell-based/cell-free evaluations” (2020).

SMILES strings stand for the structures. Activity calls are given as the source filed them. The rule behind the calls is not given here. Some results are limits rather than exact numbers.

One assay relates to CCRF-CEM. Description: Antiproliferative activity against human CCRF-CEM cells assessed as cell growth inhibition at 10 uM by SRB assay. The format is functional, cell-based. (In general: Sulforhodamine B stains cellular protein and so reports cell mass.)
A further assay concerns HL-60. Description: Antiproliferative activity against human HL-60 cells assessed as cell growth inhibition at 10 uM by SRB assay. The format is functional, cell-based.
A further assay concerns K562. The assay is described as follows: Antiproliferative activity against human K562 cells assessed as cell growth inhibition at 10 uM by SRB assay. The format is functional, cell-based.
The subject of a further assay is MOLT-4. The assay is described as follows: Antiproliferative activity against human MOLT-4 cells assessed as cell growth inhibition at 10 uM by SRB assay. In kind it is functional, cell-based.
A further assay has as its system RPMI-8226. The assay is described as follows: Antiproliferative activity against human RPMI-8226 cells assessed as cell growth inhibition at 10 uM by SRB assay. The format is functional, cell-based.
Another assay relates to SR. The assay is described as follows: Antiproliferative activity against human SR cells assessed as cell growth inhibition at 10 uM by SRB assay. The format is functional, cell-based.
The test system of a further assay is EKVX. Description: Antiproliferative activity against human EKVX cells assessed as cell growth inhibition at 10 uM by SRB assay. The format is functional.
The next assay deals with HOP-92. The assay is described as follows: Antiproliferative activity against human HOP-92 cells assessed as cell growth inhibition at 10 uM by SRB assay. The format is functional, cell-based.
For the next assay, the system named is NCI-H226. Description: Antiproliferative activity against human NCI-H226 cells assessed as cell growth inhibition at 10 uM by SRB assay. In kind it is functional.
Another assay relates to NCI-H23. The assay is described as follows: Antiproliferative activity against human NCI-H23 cells assessed as cell growth inhibition at 10 uM by SRB assay. The format is functional.
A further assay concerns NCI-H522. The assay is described as follows: Antiproliferative activity against human NCI-H522 cells assessed as cell growth inhibition at 10 uM by SRB assay. The format is functional, cell-based.
The next assay concerns SF-295. Description: Antiproliferative activity against human SF-295 cells assessed as cell growth inhibition at 10 uM by SRB assay. The format is functional, cell-based.
The test system of a further assay is UO-31. Description: Antiproliferative activity against human UO-31 cells assessed as inhibition of cell growth at 10 uM by SRB assay relative to control. In kind it is functional.
A further assay relates to Hs-578T. The assay is described as follows: Antiproliferative activity against human Hs-578T cells assessed as inhibition of cell growth at 10 uM by SRB assay. The format is functional, cell-based.
The test system of the next assay is SK-MEL-2. The assay is described as follows: Antiproliferative activity against human SK-MEL-2 cells assessed as cell growth inhibition at 10 uM by SRB assay relative to control. In kind it is functional. Conditions: Homo sapiens, SK-MEL-2, dose 10 µM.
A further assay concerns A549. The assay is described as follows: Antiproliferative activity against human A549 cells assessed as cell growth inhibition at 10 uM by SRB assay. The format is functional, cell-based.
For another assay, the system named is HOP-62. Description: Antiproliferative activity against human HOP-62 cells assessed as cell growth inhibition at 10 uM by SRB assay. The format is functional, cell-based.
For a further assay, the system named is NCI-H322M. Description: Antiproliferative activity against human NCI-H322M cells assessed as cell growth inhibition at 10 uM by SRB assay. In kind it is functional, cell-based.
A further assay concerns NCI-H460. Description: Antiproliferative activity against human NCI-H460 cells assessed as cell growth inhibition at 10 uM by SRB assay. In kind it is functional, cell-based.

Turning to `COc1cc2oc(-c3ccc(NC(=O)c4cccc(C#N)c4)cc3)cc(=O)c2c(OC)c1OC`, the inhibition result with CCRF-CEM, in the assay on HL-60, in the assay on K562, in the assay on MOLT-4, in the assay on RPMI-8226 and with SR was “Active” each time. Also, the inhibition entry with HOP-92, in the assay with NCI-H522, in the assay with SF-295, in the assay on UO-31 and in the assay on Hs-578T was “Active” each time. Further, the inhibition at 10 µM in the assay with EKVX, in the assay on NCI-H226 and in the assay on NCI-H23 was below 50% throughout.

Consider `COC(=O)c1ccc(C(=O)Nc2cccc(-c3cc(=O)c4c(OC)c(OC)c(OC)cc4o3)c2)cc1`, for which the inhibition entry with CCRF-CEM, with HL-60, in the assay on K562, in the assay on MOLT-4, in the assay with RPMI-8226 and with SR was “Active” in each case. Moreover, the inhibition result in the assay on HOP-92, in the assay with NCI-H522, in the assay on SF-295, with UO-31 and with Hs-578T was “Active” each time. For the same compound, the inhibition at 10 µM in the assay with EKVX is below 50%; in the assay with NCI-H226, below 50%; in the assay with NCI-H23 it was below 50%; with SK-MEL-2, at most 46%.

On to `COc1cc2oc(-c3ccc(NC(=O)c4ccc(Br)cc4)cc3)cc(=O)c2c(OC)c1OC`, for which the inhibition result in the assay on CCRF-CEM, in the assay on HL-60, with K562, with MOLT-4, in the assay with RPMI-8226 and in the assay on SR was “inactive” in each case. Further, the inhibition at 10 µM with EKVX, with NCI-H226 and in the assay with NCI-H23 was below 50% throughout. Besides, the inhibition entry in the assay with HOP-92, in the assay on NCI-H522, with SF-295, in the assay with UO-31 and with Hs-578T was “Active” throughout.

In the case of `COc1cc2oc(-c3cccc(NC(=O)c4ccc(C#N)cc4)c3)cc(=O)c2c(OC)c1OC`, the inhibition result with CCRF-CEM, in the assay with HL-60, with K562, in the assay with MOLT-4, in the assay with RPMI-8226 and in the assay on SR was “Active” each time. Also, the inhibition entry in the assay with A549, in the assay on EKVX, with HOP-62, in the assay on HOP-92, with NCI-H226 and in the assay with NCI-H23 was “Active” in each case. The inhibition entry with NCI-H322M, in the assay with NCI-H460, with NCI-H522, with SF-295, in the assay on UO-31 and with Hs-578T was “Active” throughout. Moreover, the inhibition at 10 µM is below 50% with EKVX, below 50% in the assay on NCI-H226, below 50% with NCI-H23 and at most 46% in the assay with SK-MEL-2.

`COc1cc2oc(-c3cccc(NC(=O)c4cccc(C#N)c4)c3)cc(=O)c2c(OC)c1OC`: the inhibition entry in the assay with CCRF-CEM, in the assay with HL-60, in the assay with K562, in the assay with MOLT-4, in the assay on RPMI-8226 and in the assay with SR was “Active” throughout. Moreover, the inhibition result in the assay with HOP-92, with NCI-H522, in the assay with SF-295, with UO-31 and with Hs-578T was “Active” each time. Besides, the inhibition at 10 µM is below 50% in the assay on EKVX, below 50% with NCI-H226, below 50% in the assay on NCI-H23 and at most 46% in the assay on SK-MEL-2.

Regarding `COc1cc2oc(-c3ccc(NC(=O)c4ccc(C#N)cc4)cc3)cc(=O)c2c(OC)c1OC`, the inhibition at 10 µM with EKVX, in the assay on NCI-H226 and in the assay on NCI-H23 was below 50% in each case. Further, the inhibition result in the assay on HOP-92, with NCI-H522, in the assay with SF-295, in the assay with UO-31 and with Hs-578T was “Active” in each case.

Consider `COc1cc2oc(-c3cccc(NC(=O)c4ccccc4Br)c3)cc(=O)c2c(OC)c1OC`, for which the inhibition result in the assay with CCRF-CEM, in the assay with HL-60, in the assay with K562, in the assay on MOLT-4, with RPMI-8226 and with SR was “Active” throughout. Also, the inhibition result with HOP-92, in the assay with NCI-H522, in the assay on SF-295, with UO-31 and in the assay with Hs-578T was “Active” each time. The inhibition at 10 µM was below 50% with EKVX, below 50% in the assay on NCI-H226, below 50% in the assay with NCI-H23 and at most 46% with SK-MEL-2.

In the case of `COc1cc2oc(-c3cccc(NC(=O)c4ccc(C(F)(F)F)cc4)c3)cc(=O)c2c(OC)c1OC`, the inhibition entry in the assay on CCRF-CEM, in the assay with HL-60, in the assay on K562, in the assay with MOLT-4, in the assay with RPMI-8226 and with SR was “Active” in each case. Besides, the inhibition result in the assay with HOP-92, in the assay with NCI-H522, in the assay on SF-295, in the assay on UO-31 and in the assay on Hs-578T was “Active” in each case. The inhibition at 10 µM with EKVX is below 50%; in the assay on NCI-H226 it was below 50%; in the assay on NCI-H23, below 50%; with SK-MEL-2, at most 46%.

`COc1cc2oc(-c3ccc(NC(=O)c4ccc([N+](=O)[O-])cc4)cc3)cc(=O)c2c(OC)c1OC`: the inhibition at 10 µM in the assay on EKVX, with NCI-H226 and in the assay with NCI-H23 was below 50% throughout. Besides, the inhibition result in the assay with HOP-92, in the assay on NCI-H522, with SF-295, in the assay with UO-31 and in the assay on Hs-578T was “Active” each time.

For the compound `COc1cc2oc(-c3ccc(NC(=O)c4cccc(Br)c4)cc3)cc(=O)c2c(OC)c1OC`, the inhibition result in the assay with CCRF-CEM, with HL-60, with K562, in the assay with MOLT-4, with RPMI-8226 and in the assay on SR was “Active” each time. In addition, the inhibition entry in the assay with HOP-92, in the assay with NCI-H522, in the assay with SF-295, in the assay on UO-31 and in the assay on Hs-578T was “Active” in each case. Moreover, the inhibition at 10 µM in the assay on EKVX, with NCI-H226 and in the assay with NCI-H23 was below 50% each time.

Regarding `COC(=O)c1ccc(C(=O)Nc2ccc(-c3cc(=O)c4c(OC)c(OC)c(OC)cc4o3)cc2)cc1`, the inhibition at 10 µM in the assay on EKVX, in the assay on NCI-H226 and in the assay on NCI-H23 was below 50% in each case. Moreover, the inhibition entry in the assay with HOP-92, in the assay on NCI-H522, in the assay on SF-295, with UO-31 and with Hs-578T was “Active” throughout.

For `COc1cc2oc(-c3cccc(C(=O)Nc4ccc(C#N)cc4)c3)cc(=O)c2c(OC)c1OC`, the inhibition entry with A549, in the assay on EKVX, in the assay with HOP-62, in the assay on HOP-92, in the assay on NCI-H226 and with NCI-H23 was “Active” each time. In addition, the inhibition result in the assay on NCI-H322M, with NCI-H460 and in the assay on NCI-H522 was “Active” in each case.

For orientation: inhibition means how much of the control response was suppressed.
